What was measured:
[1] = test system: bamyardgrass; assay: Test B flood test barnyardgrass; format: in vivo, Echinochloa crus-galli
How it was run: (§1)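 Flood test on plants grown to the 2-leaf stage; treated plants kept in greenhouse twelve to sixteen days, then visually rated against controls on a 0 (no effect) to 10 (complete control) scale.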

[2] = test system: rape; assay: Test B pre/postemergence rape; format: in vivo, Brassica napus
How it was run: (§2)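 Herbicidal effect was estimated by eye on a ten-point control scale after plants spent twelve to sixteen days in a greenhouse following soil or foliar treatment. Foliar sprays targeted plants at one to four leaves; all doses were formulated in a non-phytotoxic solvent with surfactant.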

[3] = test system: purple nutsedge; assay: Test B pre/postemergence purple nutsedge; format: in vivo, Cyperus rotundus
How it was run: as §2

[4] = test system: cocklebur; assay: Test B pre/postemergence cocklebur; format: in vivo, Xanthium strumarium
How it was run: as §2

[5] = test system: blackgrass; assay: Test B pre/postemergence blackgrass; format: in vivo, Alopecurus myosuroides
How it was run: as §2

[6] = test system: smallflower flatsedge; assay: Test B flood test smallflower flatsedge; format: in vivo, Cyperus difformis
How it was run: as §1

[7] = test system: pigweed; assay: Test B pre/postemergence pigweed; format: in vivo, Amaranthus retroflexus
How it was run: as §2

[8] = test system: sugar beet; assay: Test B pre/postemergence sugar beet; format: in vivo, Beta vulgaris
How it was run: as §2

[9] = test system: crabgrass; assay: Test B pre/postemergence crabgrass; format: in vivo, Digitaria sanguinalis
How it was run: as §2

[10] = test system: soybean; assay: Test B pre/postemergence soybean; format: in vivo, Glycine max
How it was run: as §2

[11] = test system: wheat; assay: Test B pre/postemergence wheat; format: in vivo, Triticum aestivum
How it was run: as §2

[12] = test system: velvetleaf; assay: Test B pre/postemergence velvetleaf; format: in vivo, Abutilon theophrasti
How it was run: as §2

[13] = test system: bedstraw; assay: Test B pre/postemergence bedstraw; format: in vivo, Galium aparine
How it was run: as §2

[14] = test system: duck salad; assay: Test B flood test duck salad; format: in vivo, Heteranthera limosa
How it was run: as §1

[15] = test system: rice; assay: Test B flood test rice; format: in vivo, Oryza sativa
How it was run: as §1

[16] = test system: morningglory; assay: Test B pre/postemergence morningglory; format: in vivo, Ipomoea hederacea
How it was run: as §2

[17] = test system: giant foxtail; assay: Test B pre/postemergence giant foxtail; format: in vivo, Setaria faberii
How it was run: as §2

[18] = test system: corn; assay: Test B pre/postemergence corn; format: in vivo, Zea mays
How it was run: as §2

[19] = test system: surinam grass; assay: Test B pre/postemergence surinam grass; format: in vivo, Brachiaria decumbens
How it was run: as §2

[20] = test system: wild oat; assay: Test B pre/postemergence wild oat; format: in vivo, Avena fatua
How it was run: as §2

[21] = Rate 62 g/ha, headed Pre-emergence (flood test species), scale 0 to 10 (0 no effect, 10 complete control)
[22] = Rate 125 g/ha, Pre-emergence, flood test species, scale 0 to 10 where 0 is no effect and 10 is complete control
[23] = Rate 250 g/ha, Pre-emergence, flood-test species, scale 0 to 10, 0 is no effect, 10 is complete control
[24] = Rate 500 g/ha, headed Pre-emergence (flood test species), scale 0 to 10 (0 no effect, 10 complete control)
[25] = Preemergence, Rate 62 g/ha, scale of 0 to 10 where 0 is no effect and 10 is complete control
[26] = Preemergence, Rate 125 g/ha, 0 is no effect, 10 is complete control
[27] = Preemergence, Rate 250 g/ha, scale 0 to 10, 0 is no effect, 10 is complete control
[28] = Rate 62 g/ha, Postemergence, scale of 0 to 10 where 0 is no effect and 10 is complete control
[29] = Rate 125 g/ha, Postemergence, scale 0 to 10

For `Cc1ccccc1-n1c(=O)on(C(=O)N(c2ccc(F)cc2Cl)C(C)C)c1=O` [Compound 186], the “Barnyardgrass plant response rating” value [1, 21] was 0, the “Barnyardgrass plant response rating” value [1, 22] was 0 and the “Barnyardgrass plant response rating” value [1, 23] was 0. For the same molecule, the “Plant response rating, Barnyardgrass” value [1, 24] was 0, the “Rape plant response rating” value [2, 25] was 0 and the “Rape plant response rating (0 to 10 scale)” value [2, 26] was 0. For the same molecule, the “Rape plant response rating” value [2, 27] was 0, the “Rape plant response rating” value [2, 28] was 0 and the “Rape plant response rating” value [2, 29] was 0. The “Plant response rating (0 to 10; 0 is no effect, 10 is complete control), Rape” value ([2]; Rate 250 g/ha, Postemergence) was 0, the “Nutsedge plant response rating” value [3, 25] was 0 and the “Nutsedge plant response rating (0 to 10 scale)” value [3, 26] was 0. For the same molecule, the “Nutsedge plant response rating” value [3, 28] was 0, the “Nutsedge plant response rating” value [3, 29] was 0 and the “Plant response rating (0 to 10; 0 is no effect, 10 is complete control), Nutsedge” value ([3]; Rate 250 g/ha, Postemergence) was 2. The “Cocklebur plant response rating” value [4, 25] was 0, the “Cocklebur plant response rating (0 to 10 scale)” value [4, 26] was 0 and the “Cocklebur plant response rating” value [4, 27] was 0. The “Cocklebur plant response rating” value [4, 28] was 0, the “Cocklebur plant response rating” value [4, 29] was 0 and the “Plant response rating (0 to 10; 0 is no effect, 10 is complete control), Cocklebur” value ([4]; Rate 250 g/ha, Postemergence) was 0. For the same molecule, the “Blackgrass plant response rating” value [5, 25] was 0, the “Blackgrass plant response rating (0 to 10 scale)” value [5, 26] was 0 and the “Blackgrass plant response rating” value [5, 27] was 3. The “Blackgrass plant response rating” value [5, 28] was 0, the “Blackgrass plant response rating” value [5, 29] was 0 and the “Plant response rating (0 to 10; 0 is no effect, 10 is complete control), Blackgrass” value ([5]; Rate 250 g/ha, Postemergence) was 4. For the same molecule, the “S. Flatsedge plant response rating” value [6, 21] was 0, the “S. Flatsedge plant response rating” value [6, 22] was 0 and the “S. Flatsedge plant response rating” value [6, 23] was 0. The “S. Flatsedge plant response rating” value ([6]; Rate 500 g/ha, Pre-emergence, flood test species, scale 0 to 10 (0 no effect, 10 complete control)) was 0, the “Redroot pigweed plant response rating” value [7, 25] was 0 and the “Redroot pigweed plant response rating (0 to 10 scale)” value [7, 26] was 0. The “Redroot pigweed plant response rating” value [7, 27] was 2, the “Redroot pigweed plant response rating” value [7, 28] was 0 and the “Redroot pigweed plant response rating” value [7, 29] was 0. For the same molecule, the “Plant response rating (0 to 10; 0 is no effect, 10 is complete control), Redroot pigweed” value ([7]; Rate 250 g/ha, Postemergence) was 0, the “Sugarbeets plant response rating” value [8, 25] was 0 and the “Sugarbeets plant response rating (0 to 10 scale)” value [8, 26] was 0. For the same molecule, the “Sugarbeets plant response rating” value [8, 27] was 0, the “Sugarbeets plant response rating” value [8, 28] was 0 and the “Sugarbeets plant response rating” value [8, 29] was 0. The “Plant response rating (0 to 10; 0 is no effect, 10 is complete control), Sugarbeets” value ([8]; Rate 250 g/ha, Postemergence) was 0, the “Crabgrass plant response rating” value [9, 25] was 2 and the “Crabgrass plant response rating (0 to 10 scale)” value [9, 26] was 6. For the same molecule, the “Crabgrass plant response rating” value [9, 27] was 6, the “Crabgrass plant response rating” value [9, 28] was 0 and the “Crabgrass plant response rating” value [9, 29] was 0. For the same molecule, the “Plant response rating (0 to 10; 0 is no effect, 10 is complete control), Crabgrass” value ([9]; Rate 250 g/ha, Postemergence) was 2, the “Soybean plant response rating” value [10, 25] was 0 and the “Soybean plant response rating (0 to 10 scale)” value [10, 26] was 0. The “Soybean plant response rating” value [10, 27] was 0, the “Soybean plant response rating” value [10, 28] was 1 and the “Soybean plant response rating” value [10, 29] was 1. The “Plant response rating (0 to 10; 0 is no effect, 10 is complete control), Soybean” value ([10]; Rate 250 g/ha, Postemergence) was 2, the “Wheat plant response rating” value [11, 25] was 0 and the “Wheat plant response rating” value [11, 27] was 0. For the same molecule, the “Wheat plant response rating” value [11, 29] was 0, the “Plant response rating (0 to 10; 0 is no effect, 10 is complete control), Wheat” value ([11]; Rate 250 g/ha, Postemergence) was 0 and the “Velvetleaf plant response rating” value [12, 25] was 0. For the same molecule, the “Velvetleaf plant response rating” value [12, 27] was 2, the “Velvetleaf plant response rating” value [12, 29] was 0 and the “Plant response rating (0 to 10; 0 is no effect, 10 is complete control), Velvetleaf” value ([12]; Rate 250 g/ha, Postemergence) was 0. For the same molecule, the “Bedstraw plant response rating” value [13, 25] was 0, the “Bedstraw plant response rating (0 to 10 scale)” value [13, 26] was 0 and the “Bedstraw plant response rating” value [13, 27] was 0. The “Bedstraw plant response rating” value [13, 28] was 0, the “Bedstraw plant response rating” value [13, 29] was 0 and the “Plant response rating (0 to 10; 0 is no effect, 10 is complete control), Bedstraw” value ([13]; Rate 250 g/ha, Postemergence) was 8. The “Ducksalad plant response rating” value [14, 21] was 0, the “Ducksalad plant response rating” value [14, 22] was 0 and the “Ducksalad plant response rating” value [14, 23] was 0. The “Plant response rating, Ducksalad” value [14, 24] was 0, the “Rice plant response rating” value [15, 21] was 0 and the “Rice plant response rating” value [15, 22] was 0. For the same molecule, the “Rice plant response rating” value [15, 23] was 0, the “Plant response rating, Rice” value [15, 24] was 0 and the “Morningglory plant response rating” value [16, 25] was 0. For the same molecule, the “Morningglory plant response rating (0 to 10 scale)” value [16, 26] was 0, the “Morningglory plant response rating” value [16, 27] was 0 and the “Morningglory plant response rating” value [16, 28] was 1. For the same molecule, the “Morningglory plant response rating” value [16, 29] was 2, the “Plant response rating (0 to 10; 0 is no effect, 10 is complete control), Morningglory” value ([16]; Rate 250 g/ha, Postemergence) was 2 and the “Giant foxtail plant response rating” value [17, 25] was 5. The “Giant foxtail plant response rating (0 to 10 scale)” value [17, 26] was 9, the “Giant foxtail plant response rating” value [17, 27] was 9 and the “Giant foxtail plant response rating” value [17, 28] was 0. For the same molecule, the “Giant foxtail plant response rating” value [17, 29] was 0, the “Plant response rating (0 to 10; 0 is no effect, 10 is complete control), Giant foxtail” value ([17]; Rate 250 g/ha, Postemergence) was 0 and the “Corn plant response rating” value [18, 25] was 0. For the same molecule, the “Corn plant response rating (0 to 10 scale)” value [18, 26] was 0, the “Corn plant response rating” value [18, 27] was 0 and the “Corn plant response rating” value [18, 28] was 0. The “Corn plant response rating” value [18, 29] was 0, the “Plant response rating (0 to 10; 0 is no effect, 10 is complete control), Corn” value ([18]; Rate 250 g/ha, Postemergence) was 0 and the “B. signalgrass plant response rating” value [19, 25] was 0. For the same molecule, the “B. signalgrass plant response rating (0 to 10 scale)” value [19, 26] was 0, the “B. signalgrass plant response rating” value [19, 27] was 0 and the “B. signalgrass plant response rating” value [19, 28] was 0. The “B. signalgrass plant response rating” value ([19]; Rate 125 g/ha, Postemergence, scale 0 (no effect) to 10 (complete control)) was 0, the “Plant response rating, B. signalgrass” value ([19]; Rate 250 g/ha, Postemergence, scale 0 to 10, 0 is no effect, 10 is complete control) was 0 and the “Wild oats plant response rating” value [20, 25] was 0. The “Wild oats plant response rating” value [20, 27] was 0, the “Wild oats plant response rating” value [20, 29] was 0 and the “Plant response rating (0 to 10; 0 is no effect, 10 is complete control), Wild oats” value ([20]; Rate 250 g/ha, Postemergence) was 0.

From US6737383B1, “Herbicidal oxadiazolidines” (priority 1999, dated 2004)
